The subject of data set [1] is Chloroquine-resistant (K1) strain of P. falciparum. Briefly: Malaria SYBR Green I-based fluorescence (MSF) assay, K1 strain. It is filed as cell-based. Conditions: Plasmodium falciparum. On the procedure:
(§1) The stock (5 mg/mL or 10 mM) solutions of extracts were prepared in DMSO and required dilutions were made in culture medium.
(§2) Two-fold serial dilutions of test samples were made in 96 well plates and incubated with 1.0% parasitized cell suspension containing 0.8% parasitaemia (Asynchronous culture with more than 80% ring stages). The plates were incubated at 37° C. in CO2 incubator in an atmosphere of 5% CO2 and air mixture. 72 hours later 100 μL of lysis buffer containing 2× concentration of SYBR Green-I (Invitrogen) was added to each well and incubated for one hour at 37° C. The plates were examined at 485±20 nm of excitation and 530±20 nm of emission for relative fluorescence units (RFUs) per well using the fluorescence plate reader (FLX800, BIOTEK). IC50 values were obtained by Logit regression analysis of dose response curves (Singh et al. 2011).

In data set [2] the test system is Chloroquine-sensitive (3D7) strain of P. falciparum. Briefly: Malaria SYBR Green I-based fluorescence (MSF) assay, 3D7 strain. Conditions: Plasmodium falciparum. It is filed as cell-based. On the procedure:
as §1, §2

The next data set in a line: in vitro. Conditions: monkey. On the procedure: The cells were incubated with test sample dilutions for 72 h and MTT was used as reagent for detection of cytotoxicity. Podophyllotoxin (SIGMA) was used as the standard reference drug.
Where [3] appears, read: P. falciparum K1, 72 hours incubation, read-out: IC50 against K1.
[4] abbreviates: P. falciparum 3D7, 72 hours incubation, read-out: IC50 against 3D7.

Read-outs that look alike come from different tables or passages of the source.

IC50, melting point and CC50 data for 20 compounds are collected here from patent US10519098B2, “Aromatic derivatives as anti-malarial” (Council of Scientific & Industrial Research, priority 2014, dated 2019).

As for `COc1cc(/C=C/C(=O)OC[C@@H](OC(=O)/C=C/c2cc(OC)c(OC)c(OC)c2)c2cc(OC)c(OC)c(OC)c2)cc(OC)c1OC` [Compound 57, (S)-1-(3,4,5-trimethoxyphenyl)ethane-1,2-diyl(2E,2′E)-bis(3-(3,4,5-trimethoxyphenyl)acrylate)], the melting point fell in the range of 61 to 62 °C. Besides, the concentration for half-maximal inhibition (IC50) in data set [1] (K1, range given for listed compounds, read-out: IC50 values against K1 culture) is 1.5 to 4 µM. The half-maximal inhibitory concentration (IC50) in data set [1] (setting [3]) turned out to be 2.23 µM. In data set [2] (3D7, range given for listed compounds, read-out: IC50 values against 3D7 culture), the IC50 was in the range of 2 to 7 µM. In addition, the IC50 in data set [2] (setting [4]) amounted to 6.29 µM. In “in vitro”, this compound returned a CC50 at 72 h of 47.4 µM.
In the case of `O=C(/C=C/c1ccccc1)NC[C@H](OC(=O)/C=C/c1ccccc1)c1ccccc1` [Compound 26, (R)-2-cinnamamido-1-phenylethyl cinnamate], the melting point lay within 183 to 185 °C. Moreover, in data set [1] (setting [3]), the half-maximal inhibitory concentration (IC50) was above 10 µM. Moreover, in data set [2] (setting [4]), the half-inhibitory concentration (IC50) was found to be 4.72 µM. Besides, the CC50 at 72 h in the data set “in vitro” stood at 63.9 µM.
For `COc1ccc([C@@H](CNC(=O)c2ccccc2)OC(=O)c2ccccc2)cc1OC` [Compound 39, (S)-2-benzamido-1-(3,4-dimethoxyphenyl) ethyl benzoate], in that order: 129 to 131 °C, above 10 µM, 6.67 µM and 8.16 µM.
For `COc1ccc([C@@H](COC(=O)/C=C/c2ccccc2)NC(=O)/C=C/c2ccccc2)cc1OC` [Compound 55, (S)-2-cinnamamido-2-(3,4-dimethoxyphenyl)ethyl cinnamate], in that order: 117 to 120 °C, above 10 µM, above 10 µM and 55.6 µM.
For `COc1ccc([C@H](CNC(=O)c2ccccc2)OC(=O)c2ccccc2)cc1OC` [Compound 40, (R)-2-benzamido-1-(3,4-dimethoxyphenyl) ethyl benzoate], in that order: 128 to 130 °C, above 10 µM, 3.66 µM and 104 µM.
`COc1ccc([C@@H](CNC(=O)/C=C/c2ccc(O[Si](C)(C)C(C)(C)C)cc2)OC(=O)/C=C/c2ccc(O[Si](C)(C)C(C)(C)C)cc2)cc1OC` [Compound 48, (S)-2-((E)-3-(4-((tert-butyldimethylsilyl)oxy)phenyl)acrylamido)-1-(3,4-dimethoxyphenyl)ethyl (E)-3-(4-((tert-butyldimethylsilyl)oxy)phenyl)acrylate] registered a melting point of 63 to 65 °C. In data set [1] (setting [3]), the half-inhibitory concentration (IC50) is 3.37 µM. Further, the IC50 in data set [2] (setting [4]) was determined as 7.92 µM. The same compound yielded a CC50 at 72 h in the data set “in vitro” of 40.8 µM.
Consider `Cc1ccc([C@H](CNC(=O)/C=C/c2ccccc2)OC(=O)/C=C/c2ccccc2)cc1` [Compound 30, (R)-2-cinnamamido-1-(p-tolyl) ethyl cinnamate], for which the melting point was 139 to 141 °C. For the same compound, the concentration for half-maximal inhibition (IC50) in data set [1] (setting [3]) is above 10 µM. Also, in data set [2] (setting [4]), the IC50 turned out to be 6.97 µM. Further, the CC50 at 72 h in the data set “in vitro” is 49.4 µM.
`O=C(/C=C/c1ccccc1)NC[C@@H](OC(=O)/C=C/c1ccccc1)c1ccccc1` [Compound 25, (S)-2-cinnamamido-1-phenylethyl cinnamate] displayed a melting point of 181 to 183 °C. In data set [1] (setting [3]), the IC50 is above 10 µM. The IC50 in data set [2] (setting [4]) came out at 3.85 µM. Also, in the data set “in vitro”, the CC50 at 72 h stood at 31.7 µM.
For `Cc1ccc([C@@H](CNC(=O)/C=C/c2ccccc2)OC(=O)/C=C/c2ccccc2)cc1` [Compound 29, (S)-2-cinnamamido-1-(p-tolyl) ethyl cinnamate], in that order: 139 to 140 °C, above 10 µM, 6.77 µM and 141 µM.
The compound `O=C(/C=C/c1ccccc1)NC[C@@H](OC(=O)/C=C/c1ccccc1)c1ccc2c(c1)OCO2` [Compound 33, (S)-1-(benzo[d][1,3]dioxol-5-yl)-2-cinnamamidoethyl cinnamate] gave a melting point of 186 to 190 °C. In addition, in data set [1] (setting [3]), the IC50 was above 5 µM. The 50% inhibitory concentration (IC50) in data set [2] (setting [4]) was above 5 µM. Besides, the CC50 at 72 h in “in vitro” amounted to 190 µM.
`COc1ccccc1[C@@H](CNC(=O)/C=C/c1ccccc1)OC(=O)/C=C/c1ccccc1` [Compound 9, (S)-2-cinnamamido-1-(2-methoxyphenyl)ethyl cinnamate] showed a melting point of 112 to 114 °C. Further, the IC50 in data set [1] (setting [3]) was above 5 µM. Besides, in data set [2] (setting [4]), the IC50 was above 5 µM. In addition, in “in vitro”, the CC50 at 72 h turned out to be 77.8 µM.
In turn, `COc1cccc([C@H](CNC(=O)/C=C/c2ccccc2)OC(=O)/C=C/c2ccccc2)c1OC` [Compound 22, (R)-2-cinnamamido-1-(2,3-dimethoxyphenyl)ethyl cinnamate] yielded a melting point of 105 to 107 °C. The IC50 in data set [1] (setting [3]) is above 5 µM. For the same compound, the half-inhibitory concentration (IC50) in data set [2] (setting [4]) is above 5 µM. For the same compound, in “in vitro”, the CC50 at 72 h was 194 µM.
With `COc1ccc([C@H](COC(=O)/C=C/c2ccccc2)OC(=O)/C=C/c2ccccc2)cc1` [Compound 20, (R)-1-(4-methoxyphenyl)ethane-1,2-diyl (2E,2′E)-bis(3-phenylacrylate)], the melting point fell in the range of 76 to 79 °C. The IC50 in data set [2] (setting [4]) was above 5 µM. This compound came in with a CC50 at 72 h in “in vitro” of 23.3 µM.
For `COc1ccc([C@H](CNC(=O)/C=C/c2ccccc2)OC(=O)/C=C/c2ccccc2)cc1OC` [Compound 2, (R)-2-cinnamamido-1-(3,4-dimethoxyphenyl)ethyl cinnamate], in that order: 123 to 125 °C, above 5 µM and 66.7 µM.
Compound `COc1ccc([C@H](CNC(=O)CCc2ccccc2)OC(=O)CCc2ccccc2)cc1OC` [Compound 44, (R)-1-(3,4-dimethoxyphenyl)-2-(3-phenylpropanamido)ethyl 3-phenyl propanoate] returned a melting point of 77 to 78 °C. The IC50 in data set [1] (setting [3]) was above 10 µM. The IC50 in data set [2] (setting [4]) turned out to be 5.86 µM. The CC50 at 72 h in “in vitro” came out at 73.2 µM.
For `Cc1ccc([C@@H](COC(=O)/C=C/c2ccccc2)OC(=O)/C=C/c2ccccc2)cc1` [Compound 31, (S)-1-(p-tolyl) ethane-1,2-diyl (2E,2′E)-bis(3-phenylacrylate)], in that order: 103 to 105 °C, above 5 µM, above 5 µM and above 200 µM.
The compound `O=C(/C=C/c1ccccc1)OC[C@H](OC(=O)/C=C/c1ccccc1)c1ccccc1` [Compound 28, (R)-1-phenylethane-1,2-diyl (2E,2′E)-bis(3-phenylacrylate)] registered a melting point of 132 to 134 °C. In addition, the IC50 in data set [2] (setting [4]) is above 5 µM. The CC50 at 72 h in “in vitro” was determined as 30.3 µM.
For `COc1cccc([C@H](COC(=O)/C=C/c2ccccc2)OC(=O)/C=C/c2ccccc2)c1` [Compound 16, (R)-1-(3-methoxyphenyl)ethane-1,2-diyl (2E,2′E)-bis(3-phenylacrylate)], in that order: 67 to 69 °C, above 5 µM and 22.3 µM.
For `Cc1ccc([C@H](COC(=O)/C=C/c2ccccc2)OC(=O)/C=C/c2ccccc2)cc1` [Compound 32, (R)-1-(p-tolyl) ethane-1,2-diyl (2E,2′E)-bis(3-phenylacrylate)], in that order: 103 to 105 °C, above 5 µM and above 200 µM.
For `O=C(/C=C/c1ccccc1)NC[C@H](OC(=O)/C=C/c1ccccc1)c1ccc2c(c1)OCO2` [Compound 34, (R)-1-(benzo[d][1,3]dioxol-5-yl)-2-cinnamamidoethyl cinnamate], in that order: 200 to 202 °C, above 5 µM and above 200 µM.

A word on the IC50: it is the point on the concentration scale where inhibition reaches its midpoint. The melting point is the temperature, or range, at which the solid turns liquid.
